Test results as given in patent US20240016773A1, “COMPOSITIONS AND METHODS FOR DIAGNOSIS AND TREATMENT OF CONDITIONS RELATED TO AGING” (EPITRACKER, INC., priority 2018, published 2024).

Experiments:
[1] = tested on: BT system: peripheral blood mononuclear cells, B cells (α-IgM, TCR ligands); assay: BioMAP Diversity PLUS, BT system; type: cell-based, human
Text: (§1) The Diversity PLUS panel allows test agent characterization in an unbiased way across a broad set of systems modeling various human disease states. These systems are designed to model complex human tissue and disease biology of the vasculature, skin, lung, and inflammatory tissues. Quantitative measurements of 148 biomarker activities across this broad panel, along with comparative analysis of biological activities from known bioactive agents, were used to predict and compare the efficacy and function of each selected compound at four concentrations (740 nm and 2.2, 6.7 and 20 μM).
(§2) BioMAP systems are constructed with one or more primary cell types from healthy human donors, with stimuli (such as cytokines or growth factors) added to capture relevant signaling networks that naturally occur in human tissue or pathological conditions. Vascular biology is modeled in both a Th1 (3C system) and a Th2 (4H system) inflammatory environment, as well as in a Th1 inflammatory state specific to arterial smooth muscle cells (CASM3C system). Additional systems recapitulate aspects of the systemic immune response including monocyte-driven Th1 inflammation (LPS system) or T cell stimulation (SAg system), chronic Th1 inflammation driven by macrophage activation (lMphg system) and the T cell-dependent activation of B cells that occurs in germinal centers (BT system). The BE3C system (Th1) and the BF4T system (Th2) represent airway inflammation of the lung, while the MyoF system models myofibroblast-lung tissue remodeling. Lastly, skin biology is addressed in the KF3CT system modeling Th1 cutaneous inflammation and the HDF3CGF system modeling wound healing.
(§3) Each test agent generates a signature BioMAP profile that is created from the changes in protein biomarker readouts within individual system environments. Biomarker readouts (7-17 per system) are selected for therapeutic and biological relevance, are predictive for disease outcomes or specific drug effects and are validated using agents with known mechanism of action (MoA). Each readout is measured quantitatively by immune-based methods that detect protein (e.g., ELISA) or functional assays that measure proliferation and viability. BioMAP readouts are diverse and include cell surface receptors, cytokines, chemokines, matrix molecules and enzymes. In total, the Diversity PLUS panel contains 148 biomarker readouts that capture biological changes that occur within the physiological context of the particular BioMAP system. Specific BioMAP activities have been correlated to in vivo biology, and multiparameter BioMAP profiles have been used to distinguish compounds based on MoA and target selectivity across diverse physiological systems.
(§4) Activated BioMAP systems were incubated with each compound for 24 to 72 hours. Protein-based biomarkers from activated cell systems were measured and compared with non-treated control systems.

[2] = tested on: BF4T system: bronchial epithelial cells, dermal fibroblasts (IL-4, TNF-α); assay: BioMAP Diversity PLUS, BF4T system; type: cell-based, human
Text: as §1
(§5) BioMAP systems are constructed with one or more primary cell types from healthy human donors, with stimuli (such as cytokines or growth factors) added to capture relevant signaling networks that naturally occur in human tissue or pathological conditions. Vascular biology is modeled in both a Th1 (3C system) and a Th2 (4H system) inflammatory environment, as well as in a Th1 inflammatory state specific to arterial smooth muscle cells (CASM3C system). […]
as §3, with “Specific BioMAP activities have been correlated to in vivo biology, and multiparameter BioMAP profiles have been used to distinguish compounds based on MoA and target selectivity across diverse physiological systems.” left out
as §4

[3] = tested on: CASM3C system: coronary artery smooth muscle cells (IL-1β, TNFα, IFNγ); assay: BioMAP Diversity PLUS, CASM3C system; type: cell-based, human; conditions: 2.2 μM
Text: as §1, with “μM). […]” for “μM).”
(§6) Each test agent generates a signature BioMAP profile that is created from the changes in protein biomarker readouts within individual system environments. Biomarker readouts (7-17 per system) are selected for therapeutic and biological relevance, are predictive for disease outcomes or specific drug effects and are validated using agents with known mechanism of action (MoA). Each readout is measured quantitatively by immune-based methods that detect protein (e.g., ELISA) or functional assays that measure proliferation and viability. BioMAP readouts are diverse and include cell surface receptors, cytokines, chemokines, matrix molecules and enzymes. […]

[4] = tested on: HDF3CGF system: dermal fibroblasts (IFNγ, TNFα, IL-1β, EGF, bFGF, PDGF-BB); assay: BioMAP Diversity PLUS, HDF3CGF system; type: cell-based, human; conditions: HDF3CGF
Text: as §1, §2, §3, §4

[5] = tested on: twelve different human primary cell systems mimicking various disease states; assay: BioMAP Diversity PLUS panel, twelve human primary cell systems (summary by disease); type: cell-based; parameters: key: x: Significantly reduced cell-based biomarkers relevant to specific diseases and conditions
Text: As a proof of concept, 14 compounds were selected from our compound library based on predicted efficacy in lowering inflammation in dolphins. Pure synthetic forms of these compounds were screened for cell-based activities (relevant to multiple aging-associated diseases and diseases that may impact longevity) using twelve different human primary cell systems mimicking various disease states (TABLE 4—description of primary human cell systems used to screen selected compounds in library).
as §1, §2, §3, §4

[6] = tested on: LPS system: venular endothelial cells, peripheral blood mononuclear cells (TLR4 ligand); assay: BioMAP Diversity PLUS, LPS system; type: cell-based, human
Text: as §1, §2
as §6, with “enzymes. In total, the Diversity PLUS panel contains 148 biomarker readouts that capture biological changes that occur within the physiological context of the particular BioMAP system.” for “enzymes.”
as §4

[7] = tested on: SAg system: venular endothelial cells, peripheral blood mononuclear cells (TCR ligands); assay: BioMAP Diversity PLUS, SAg system; type: cell-based, human
Text: as §1, §2, §3, §4

[8] = tested on: BE3C system: bronchial epithelial cells (IL-1β, IFNγ, TNFα); assay: BioMAP Diversity PLUS, BE3C system; type: cell-based, human
Text: as §1, §5
as §6, with “enzymes. In total, the Diversity PLUS panel contains 148 biomarker readouts that capture biological changes that occur within the physiological context of the particular BioMAP system.” for “enzymes.”
as §4

[9] = tested on: /Mphg system: macrophages, venular endothelial cells (TLR2 ligand); assay: BioMAP Diversity PLUS, /Mphg system; type: cell-based, human; conditions: 20.0 μM
Text: as §1, with “μM). […]” for “μM).”
as §6

## CCCCCCC=CCCCCCCCCC(=O)O [10-heptadecanoate]
[1]; 6.7 μM
  Significant log10 reduction vs nontreated controls: Secreted interleukin 2 (IL-2): −0.11 log10
[2]; 2.2 μM
  Significant log10 reduction vs nontreated controls: Eotaxin 3 (CCL26): −0.10 log10
[2]; 6.7 μM
  Significant log10 reduction vs nontreated controls: Eotaxin 3 (CCL26): −0.13 log10
[2]; 20.0 μM
  Significant log10 reduction vs nontreated controls: Eotaxin 3 (CCL26): −0.31 log10
[3]
  Significant log10 reduction vs nontreated controls: Serum amyloid A: −0.13 log10
[4]; 6.7 μM
  Significant log10 reduction vs nontreated controls: Macrophage colony-stimulating factor (M-CSF): −0.1 log10
  Significant log10 reduction vs nontreated controls: Vascular cell adhesion molecule 1 (VCAM-1): −0.17 log10
[5]; Table 6
  Significantly reduced cell-based biomarkers relevant to: Allergy: x
  Significantly reduced cell-based biomarkers relevant to: Asthma: x
  Significantly reduced cell-based biomarkers relevant to: Autoimmunity: x
  Significantly reduced cell-based biomarkers relevant to: COPD: x
  Significantly reduced cell-based biomarkers relevant to: Hematological oncology: x
  Significantly reduced cell-based biomarkers relevant to: Pulmonary fibrosis: x
  Significantly reduced cell-based biomarkers relevant to: SLE: x
  Significantly reduced cell-based biomarkers relevant to: T-cell dependent B cell proliferation: x
  Significantly reduced cell-based biomarkers relevant to: Th2 type inflammation: x
[5]; Table 7
  Significantly reduced cell-based biomarkers relevant to: Chronic inflammation: x
  Significantly reduced cell-based biomarkers relevant to: Psoriasis: x
  Significantly reduced cell-based biomarkers relevant to: Restenosis: x
  Significantly reduced cell-based biomarkers relevant to: Rheumatoid arthritis: x
  Significantly reduced cell-based biomarkers relevant to: Thl type inflammation: x
[5]; Table 8
  Significantly reduced cell-based biomarkers relevant to: Fibrosis: x
  Significantly reduced cell-based biomarkers relevant to: Stromal biology in tumors: x
  Significantly reduced cell-based biomarkers relevant to: Vascular inflammation: x

## C=CCCCCCCCCC(=O)O [10-undecanoate]
[1]; 2.2 μM
  Significant log10 reduction vs nontreated controls: Secreted interleukin 17A (IL-17A): −0.25 log10
[1]; 20.0 μM
  Significant log10 reduction vs nontreated controls: Secreted interleukin 17A (IL-17A): −0.20 log10
  Significant log10 reduction vs nontreated controls: Tumor necrosis factor alpha (TNFα): −0.12 log10
[4]; 0.7 μM
  Significant log10 reduction vs nontreated controls: Macrophage colony-stimulating factor (M-CSF): −0.11 log10
[4]; 2.2 μM
  Significant log10 reduction vs nontreated controls: Macrophage colony-stimulating factor (M-CSF): −0.07 log10
[6]; 0.7 μM
  Significant log10 reduction vs nontreated controls: Secreted prostaglandin E2 (PGE2): −0.11 log10
[6]; 2.2 μM
  Significant log10 reduction vs nontreated controls: Secreted prostaglandin E2 (PGE2): −0.08 log10
[6]; 6.7 μM
  Significant log10 reduction vs nontreated controls: Secreted prostaglandin E2 (PGE2): −0.20 log10
[6]; 20.0 μM
  Significant log10 reduction vs nontreated controls: CD40: −0.11 log10
[7]; 0.7 μM
  Significant log10 reduction vs nontreated controls: CD40: −0.07 log10
[7]; 2.2 μM
  Significant log10 reduction vs nontreated controls: CD40: −0.14 log10
[7]; 6.7 μM
  Significant log10 reduction vs nontreated controls: CD40: −0.09 log10
[7]; 20.0 μM
  Significant log10 reduction vs nontreated controls: CD40: −0.11 log10
[8]; 2.2 μM
  Significant log10 reduction vs nontreated controls: Tissue plasminogen activator (tPA): −0.08 log10
[8]; 6.7 μM
  Significant log10 reduction vs nontreated controls: Tissue plasminogen activator (tPA): −0.11 log10
[8]; 20.0 μM
  Significant log10 reduction vs nontreated controls: Tissue plasminogen activator (tPA): −0.12 log10
[9]
  Significant log10 reduction vs nontreated controls: Secreted interleukin 10 (IL-10): −0.21 log10
[5]; Table 6
  Significantly reduced cell-based biomarkers relevant to: Allergy: x
  Significantly reduced cell-based biomarkers relevant to: Asthma: x
  Significantly reduced cell-based biomarkers relevant to: Autoimmunity: x
  Significantly reduced cell-based biomarkers relevant to: Hematological oncology: x
  Significantly reduced cell-based biomarkers relevant to: SLE: x
  Significantly reduced cell-based biomarkers relevant to: T-cell dependent B cell proliferation: x
[5]; Table 7
  Significantly reduced cell-based biomarkers relevant to: Atherosclerosis: x
  Significantly reduced cell-based biomarkers relevant to: Chronic inflammation: x
  Significantly reduced cell-based biomarkers relevant to: Metabolic diseases: x
  Significantly reduced cell-based biomarkers relevant to: Organ transplantation: x
  Significantly reduced cell-based biomarkers relevant to: Psoriasis: x
  Significantly reduced cell-based biomarkers relevant to: Restenosis: x
  Significantly reduced cell-based biomarkers relevant to: Rheumatoid arthritis: x
  Significantly reduced cell-based biomarkers relevant to: Thl type inflammation: x
[5]; Table 8
  Significantly reduced cell-based biomarkers relevant to: Crohn's disease: x
  Significantly reduced cell-based biomarkers relevant to: Fibrosis: x
  Significantly reduced cell-based biomarkers relevant to: Hematological oncology: x
  Significantly reduced cell-based biomarkers relevant to: Pulmonary responses to respiratory infections: x
  Significantly reduced cell-based biomarkers relevant to: Sarcoidosis: x
  Significantly reduced cell-based biomarkers relevant to: Stromal biology in tumors: x
